Here are results for 2 molecules from article PMC9146984, “A Novel Proline-Rich Cathelicidin from the Alpaca Vicugna pacos with Potency to Combat Antibiotic-Resistant Bacteria: Mechanism of Action and the Functional Role of the C-Terminal Region” (Membranes, 2022).

For one series, the system named is E. coli BW25113 ΔmdtM. It counts as cell-based, Escherichia coli. The conditions noted are these: Mueller–Hinton broth, 24 h, 37 °C, median. The method, then:
(§1) The reduction of resazurin to resorufin was measured.

Another series deals with E. coli BW25113 ΔsbmA. The series is classed as cell-based, Escherichia coli. As to conditions: Mueller–Hinton broth, 24 h, 37 °C, median. As to the method:
as §1

A further series has as its system E. coli BW25113. The series is classed as cell-based, Escherichia coli. As to conditions: BW25113, 24 h. As to the method: as §1
The next series deals with E. coli BW25113 ΔompF. The series is classed as cell-based, Escherichia coli. As to conditions: Mueller–Hinton broth, 24 h, 37 °C, median. As to the method: as §1
Series [1] concerns human embryonic kidney cells (HEK293T). In words: Cytotoxicity (MTT assay). The series is classed as cell-based. As to the method:
(§2) Hemolytic activity of the peptides was tested against the fresh suspension of human red blood cells (hRBC) using the hemoglobin release assay as described previously. Two experiments were performed with the hRBC from blood samples of independent donors. The quantitative data were represented as average means with standard deviations. The colorimetric 3-(4,5-dimethylthiazol-2-yl)-2,5-diphenyltetrazolium bromide (MTT) dye reduction assay was used to determine the cytotoxicity of the peptides against transformed human embryonic kidney cells (HEK293T). 10^4 cells per well in Dulbecco’s modified Eagle’s medium (DMEM/F12) supplemented with 10% fetal bovine serum (FBS; Invitrogen, Waltham, MA, USA) were placed into 96-well plates and then cultured in the CO2-incubator (5% CO2, 37 °C). After the media were removed, the peptides were dissolved in 100 µL of the same medium and added to cell cultures at different final concentrations. 20 h later, 20 μL of MTT (5 mg/mL; Sigma, St. Louis, MO, USA) was added to each well, and the plates were incubated for 4 h at 37 °C. Then, the media were discarded and a 100 µL dimethyl sulfoxide-isopropanol mixture at a ratio of 1:1 (v/v) was added to each well to dissolve the crystallized formazan. The absorbance at 570 nm was measured by a microplate reader AF2200 (Eppendorf, Hamburg, Germany). The optical density in the wells containing cells cultured without the peptides was assumed to represent 100% cell viability. Two independent experiments were performed for each peptide.

For series [2], the system named is BW25113ΔsbmA expressing the control protein sfGFP. The series is classed as cell-based, Escherichia coli. As to conditions: same promoter J23119. The method, then:
as §1
(§3) A plasmid vector for the expression of sfGFP under the strong constitutive artificial promoter J23119 [33] was kindly provided by M.N. Baranova (Figure S2A). This plasmid was used for the preparation of the complementation plasmids overexpressing two SbmA variants in the SbmA-deficient E. coli strain. The plasmids were obtained by ligase-independent cloning procedure. Briefly, DNA parts were produced by PCR-amplification of the vector and target sbmA gene from wild-type E. coli MDR 1057 or VicBac[1–22]-resistant strain (Figure S2B). The DNA fragments purified by gel electrophoresis and having 22–23 bp overhangs were mixed with molar ratios of 2:1 (insert: linearized vector) and were subsequently transformed into chemically competent E. coli DH10B cells. Target plasmids were isolated from individual clones and then analyzed by DNA sequencing.

Series [3] has as its system BW25113ΔsbmA with plasmid-borne mutant SbmA bearing the tetrapeptide deletion. It counts as cell-based, Escherichia coli. The conditions noted are these: promoter J23119, pUC vector. The method, then:
as §1, §3

Series [4] has as its system BW25113ΔsbmA with plasmid-borne wild-type SbmA. It counts as cell-based, Escherichia coli. The conditions noted are these: promoter J23119, pUC vector. The method, then:
as §1, §3

Series [5] has as its system VicBac[1–22]-resistant E. coli MDR 1057 strain. As to conditions: Mueller-Hinton broth supplemented with 0.9% NaCl; strain selected 14 days with VicBac[1-22]; cross-resistance. The method, then: (§4) Bacterial test cultures were grown in the Mueller-Hinton broth (MH; Sigma, St. Louis, MO, USA) at 37 °C to mid-log phase and then diluted with the 2× MH medium supplemented with 1.8% NaCl or without salt so that to reach a final cell concentration of 10^6 CFU/mL. 50 µL of the obtained bacterial suspension were added to aliquots of 50 µL of the peptide solutions serially diluted with sterilized 0.1% bovine serum albumin (BSA) in 96-well flat-bottom polystyrene microplates (Eppendorf #0030730011, Hamburg, Germany). […] To verify MIC values, the respiratory activity of the bacteria was determined. Briefly, 20 µL of 0.1 mg/mL resazurin (a redox indicator; Sigma, St. Louis, MO, USA) was added to the wells after 24 h of incubation, and the plate was incubated for an additional two hours. The reduction of resazurin to resorufin was measured. […] The results were expressed as the median values determined based on at least three independent experiments performed in triplicate.
(§5) Resistance induction experiments were performed using the previously described method. Briefly, on day one, the overnight culture of wild-type bacteria was diluted with the 2× MH broth supplemented with 1.8% NaCl to reach a final cell concentration of 10^6 CFU/mL. 50 µL of the obtained bacterial suspension were added to aliquots of 50 µL of the peptide solutions serially diluted with the sterilized 0.1% BSA in 96-well flat-bottom polystyrene microplates. After incubation for 20 ± 2 h at 37 °C and 950 rpm, MICs were determined as described above. For each subsequent daily transfer, 2–4 μL of the inoculum taken from the first well containing a sub-inhibitory drug concentration were diluted with 2 mL of the fresh 2× MH broth supplemented with 1.8% NaCl. […] 14 repeated passages in the presence of antimicrobial agents were made for each bacterial strain during the experiment. Bacteria that grew at the highest concentration of AMPs on the final day were passaged a further 3 times on drug-free agar plates before determining the final MIC value.

In another series the test system is E. coli MDR CI 1057. The conditions noted are these: Mueller-Hinton broth supplemented with 0.9% NaCl. The method, then:
as §4, §5

The test system of a further series is E. coli MDR 1057. The conditions noted are these: selection by VicBac[1–22], stable after three passages without peptide. The method, then:
Resistance induction experiments were performed using the previously described method. Briefly, on day one, the overnight culture of wild-type bacteria was diluted with the 2× MH broth supplemented with 1.8% NaCl to reach a final cell concentration of 10^6 CFU/mL. 50 µL of the obtained bacterial suspension were added to aliquots of 50 µL of the peptide solutions serially diluted with the sterilized 0.1% BSA in 96-well flat-bottom polystyrene microplates. After incubation for 20 ± 2 h at 37 °C and 950 rpm, MICs were determined as described above. For each subsequent daily transfer, 2–4 μL of the inoculum taken from the first well containing a sub-inhibitory drug concentration were diluted with 2 mL of the fresh 2× MH broth supplemented with 1.8% NaCl. […] Bacteria that grew at the highest concentration of AMPs on the final day were passaged a further 3 times on drug-free agar plates before determining the final MIC value.

In series [6] the test system is E. coli ML-35p cytoplasmic membrane. In words: Cytoplasmic membrane permeabilization (ONPG hydrolysis). It counts as cell-based, Escherichia coli. As to conditions: PBS, 37 °C, OD405, 2.5 mM ONPG; two independent experiments. The method, then:
To examine the ability of the peptides to affect the barrier function of the cytoplasmic bacterial membrane, we slightly modified the previously described procedure with the use of the E. coli ML-35p strain constitutively expressing cytoplasmic β-galactosidase but lacking lactose permease. The state of the E. coli ML-35p inner membrane was assessed based on its permeability to chromogenic marker o-nitrophenyl-β-D-galactopyranoside (ONPG, AppliChem, Darmstadt, Germany), which is the β-galactosidase substrate. The cells were incubated in the trypticase soy broth (TSB) for 16 h at 37 °C, washed three times with phosphate-buffered saline (PBS, pH 7.4) to remove residual growth media, adjusted to the concentration of 2.5 × 10^8 CFU/mL, and stored on ice until used. The assay was performed in PBS as well. The final concentration of E. coli ML-35p cells was 2.5 × 10^7 CFU/mL. The concentration of ONPG was 2.5 mM. Peptide samples were placed in the wells of a 96-well plate with a non-binding surface (NBS, Corning #3641), and the optical density (OD) of the solution rose due to the appearance of o-nitrophenol was measured at 405 nm using a microplate reader AF2200 (Eppendorf, Hamburg, Germany). The final volume in each well was 200 µL. Assays were performed at 37 °C under stirring at 500 rpm. Control experiments were performed under the same conditions without adding a peptide. Two independent experiments were performed, and the curve pattern was similar.

In series [7] the test system is human red blood cells (hRBC). In words: Hemolysis (hemoglobin release assay). The series is classed as cell-based. As to conditions: 1.5 h incubation (Figure 3C). The method, then:
as §2, with “The optical density in the wells containing cells cultured without the peptides was assumed to represent 100% cell viability. Two independent experiments were performed for each peptide.” left out

Values after ≈ are worked out from the molar mass of the structure shown. Like-named read-outs stand apart in the source and are kept apart here. Where a SMILES comes first, the peptide text is derived from it.

As to `CC[C@H](C)[C@H](NC(=O)[C@H](CCCNC(=N)N)NC(=O)[C@@H]1CCCN1C(=O)[C@@H]1CCCN1C(=O)[C@@H](NC(=O)[C@H](CCCNC(=N)N)NC(=O)[C@@H]1CCCN1C(=O)[C@H](CCCNC(=N)N)NC(=O)[C@@H]1CCCN1C(=O)[C@@H](NC(=O)[C@H](CCCNC(=N)N)NC(=O)[C@@H]1CCCN1C(=O)[C@H](CCCNC(=N)N)NC(=O)[C@@H]1CCCN1C(=O)[C@H](CC(C)C)NC(=O)[C@H](CCCNC(=N)N)NC(=O)[C@@H]1CCCN1C(=O)[C@H](CCCNC(=N)N)NC(=O)[C@H](CCCNC(=N)N)NC(=O)[C@@H](NC(=O)[C@H](CCCNC(=N)N)NC(=O)[C@@H](N)CCCNC(=N)N)[C@@H](C)CC)C(C)C)[C@@H](C)CC)C(=O)O` [VicBac[1-22]] (H-RRIRRPRLPRPRVPRPRIPPRI-OH), the entries for the “Minimum inhibitory concentration, E. coli strain ΔmdtM” value in the series with E. coli BW25113 ΔmdtM (0.9% NaCl: +) and in the series on E. coli BW25113 ΔmdtM (0.9% NaCl: −) were 2 µM (≈ 5.62 µg/mL) and 4 µM (≈ 11.2 µg/mL), respectively. Moreover, the “Minimum inhibitory concentration, E. coli strain ΔsbmA” value in the series on E. coli BW25113 ΔsbmA (0.9% NaCl: +) is 16 µM (≈ 45 µg/mL); in the series on E. coli BW25113 ΔsbmA (0.9% NaCl: −), 4 µM (≈ 11.2 µg/mL). The “Minimum inhibitory concentration, E. coli strain BW25113” value in the series with E. coli BW25113 came to 2 µM (≈ 5.62 µg/mL). In addition, the “Minimum inhibitory concentration, E. coli strain ΔompF” value with E. coli BW25113 ΔompF (0.9% NaCl: +) stood at 8 µM (≈ 22.5 µg/mL); in the series on E. coli BW25113 ΔompF (0.9% NaCl: −) it was 2 µM (≈ 5.62 µg/mL). Also, in series [1], the “moderate cytotoxic activity against human HEK293T cells” value was “not”. For the same molecule, the “MIC, control strain BW25113ΔsbmA expressing sfGFP” value in series [2] turned out to be 8 µM (≈ 22.5 µg/mL). Also, the “MIC, BW25113ΔsbmA with plasmid-borne mutant SbmA (tetrapeptide deletion)” value in series [3] stood at 8 µM. Moreover, the “MIC, BW25113ΔsbmA with plasmid-borne wild-type SbmA” value in series [4] came to 1 µM. For the same molecule, the “Minimum inhibitory concentration E.coli MDR 1057 14 days with VicBac [1-22]” value in series [5] is above 128 µM. Moreover, the “Minimum inhibitory concentration E.coli MDR 1057 14 days w/o AMP” value with E. coli MDR CI 1057 (after 14 passages without antimicrobial agents) was 1 µM (≈ 2.81 µg/mL). In addition, in the series on E. coli MDR CI 1057 (before passages), the “Minimum inhibitory concentration E.coli MDR 1057 0 days” value turned out to be 1 µM (≈ 2.81 µg/mL). For the same molecule, in the series with E. coli MDR 1057, the “MIC value after 10 passages subjected to selection” value was above 128 µM.
With Melittin [reference compound], the “concentration at which almost all cells were completely lysed” value was below 4 µM in series [1] (HEK293T, 20 h incubation, MTT (Figure 3D)) and below 4 µM in series [7]. The “effect on E. coli ML-35p cytoplasmic membrane permeability for ONPG” value in series [6] is listed as “significant damage”.
